The target in experiment [1] is Oxysterols receptor LXR-beta (Homo sapiens, UniProt P55055). It is filed as functional, cell-based.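 Note: Cell-based luminescence dose-response assay of agonist activity at LXR, run as a confirmatory counterscreen to a daf-12 agonist screen; HEK293 cells with Gal4-LXR fusion and GAL4-driven luciferase reporter; agonist potency from rising luciferase signal of a Gal4-LXR reporter.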
Experiment [2] in a line: cells.
A short description of experiment [3]: rescue of ΔF508 CFTR function, airway epithelium – human bronchial epithelial cells, plate reader, cherry-pick, two tests, dose response (AID 743267). It is filed as functional, cell-based.
The target in another experiment is Kallikrein-7 (Homo sapiens, UniProt P49862). Nature of the experiment: Fluorescence Intensity-based biochemical primary high throughput dose response assay to identify activators of kallikrein-7 (K7) zymogen.
The target in a further experiment is Paired box protein Pax-8 (Homo sapiens, UniProt Q06710). Nature of the experiment: PAX8 transcriptional activity inhibition in RMG-I – RMG-I cells, luciferase, cherry-pick, dose response (AID 687027).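 Note: luciferase reporter driven by Pax8 target thyroperoxidase promoter measured by SteadyGlo luminescence.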 In kind it is functional, cell-based.
Experiment [4] is described as follows: toxicity toward immortalized ovarian surface epithelium – cell-based, plate reader, dry powder samples, cytotoxicity control for PAX8 inhibitor project, dose response (AID 743045). It is filed as functional.
Experiment [5] is described as follows: OVCAR-3 cell viability loss – plate reader, dry powder samples, PAX8 inhibitor project, dose response (AID 743044). It is filed as functional, cell-based.
A short description of experiment [6]: OVCAR8 cell viability loss – plate reader, dry powder samples, PAX8 project, dose response (AID 743197). The conditions noted are these: OVCAR-8. In kind it is functional, cell-based.
Experiment [7] deals with FAD-linked sulfhydryl oxidase ALR (Homo sapiens, UniProt P55789). The experiment is described as follows: ALR-catalysed DTT oxidation blockers – biochemical, H2O2 detection, luminescence, cherry-pick, dose response (AID 493248).
A further experiment relates to HEK293. Nature of the experiment: cells. As to conditions: Homo sapiens. It is filed as functional, cell-based.
The target in experiment [8] is T1, Nuclear receptor subfamily 0 group B member 1 (Homo sapiens, UniProt P51843).
T1 sequence (P51843 whole entry): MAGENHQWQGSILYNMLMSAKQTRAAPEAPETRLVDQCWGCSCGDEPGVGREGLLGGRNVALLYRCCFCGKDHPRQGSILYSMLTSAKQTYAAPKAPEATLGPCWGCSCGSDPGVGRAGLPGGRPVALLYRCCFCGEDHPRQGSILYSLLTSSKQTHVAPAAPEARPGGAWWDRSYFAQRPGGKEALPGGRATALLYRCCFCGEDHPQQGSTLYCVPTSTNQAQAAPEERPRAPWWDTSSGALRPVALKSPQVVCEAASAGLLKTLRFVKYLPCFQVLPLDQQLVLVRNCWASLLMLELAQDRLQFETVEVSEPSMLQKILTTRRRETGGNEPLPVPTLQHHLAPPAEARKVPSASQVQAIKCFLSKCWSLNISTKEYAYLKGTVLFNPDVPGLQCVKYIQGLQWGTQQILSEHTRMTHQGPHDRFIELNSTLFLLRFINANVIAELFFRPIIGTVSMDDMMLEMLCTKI
The experiment is described as follows: Luminescence-based cell-based high throughput dose response assay for inhibitors of the orphan nuclear receptor subfamily 0, group B, member 1 (DAX1; NR0B1). [Related pubchem assays (depositor defined):AID504766, AID504790]. In kind it is functional.

Experiment [9] in a line: cells. It is filed as functional, cell-based.
The target in experiment [10] is T2, Trace amine-associated receptor 1 (Homo sapiens, UniProt Q96RJ0).
T2 sequence (Q96RJ0 whole entry): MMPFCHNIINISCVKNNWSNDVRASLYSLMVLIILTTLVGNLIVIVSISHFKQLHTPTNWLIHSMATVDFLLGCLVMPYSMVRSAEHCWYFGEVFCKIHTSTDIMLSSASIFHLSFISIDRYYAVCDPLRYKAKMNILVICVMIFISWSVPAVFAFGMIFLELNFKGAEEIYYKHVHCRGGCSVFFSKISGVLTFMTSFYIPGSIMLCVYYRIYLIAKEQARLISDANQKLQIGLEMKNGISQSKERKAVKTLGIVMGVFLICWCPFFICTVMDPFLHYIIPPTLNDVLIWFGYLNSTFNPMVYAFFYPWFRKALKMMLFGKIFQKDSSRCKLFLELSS
The experiment is described as follows: Fluorescence-based cell-based high throughput dose response assay to identify agonists of the human trace amine associated receptor 1 (TAAR1). In kind it is functional.

Experiment [11] in a line: cells. It is filed as functional, cell-based. This is another data set of the same source.
In experiment [12] the target is T2, Trace amine-associated receptor 1. The experiment is described as follows: Counterscreen for agonists of the human trace amine associated receptor 1 (hTAAR1): Fluorescence-based cell-based high throughput dose response assay to identify hTAAR1 agonist that also desensitize TAAR1 receptor response. It is filed as functional.
Experiment [13] has as its target T3, Beta-galactosidase (Escherichia coli, UniProt Q8VNN2). Nature of the experiment: Dose response counterscreen for EBI2 assay utilizing the enzyme, b-galactosidase. It is filed as functional. For orientation: A counterscreen serves to expose hits that act by an unwanted route or on another target.
In experiment [14] the target is T4, Type-1 angiotensin II receptor (Homo sapiens, UniProt P30556).
T4 sequence (P30556 whole entry): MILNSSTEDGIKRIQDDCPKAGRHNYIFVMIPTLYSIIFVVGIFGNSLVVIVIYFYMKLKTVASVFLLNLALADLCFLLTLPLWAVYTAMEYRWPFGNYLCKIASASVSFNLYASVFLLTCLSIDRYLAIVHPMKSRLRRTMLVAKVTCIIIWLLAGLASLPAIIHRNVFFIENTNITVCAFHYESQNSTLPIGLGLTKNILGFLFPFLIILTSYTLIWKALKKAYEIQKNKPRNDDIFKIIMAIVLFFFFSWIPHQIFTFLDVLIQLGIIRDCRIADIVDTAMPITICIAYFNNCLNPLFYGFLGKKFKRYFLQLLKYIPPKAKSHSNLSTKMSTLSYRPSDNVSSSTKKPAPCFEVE
The experiment is described as follows: antagonism of angiotensin II type 1 receptor – cell-based, uHTS hits, selectivity assay for APJ receptor antagonist project, dose response (AID 463214).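 Note: antagonist potency against angiotensin II stimulated AT1 response.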 It is filed as functional.

For experiment [15], the target named is T3, Beta-galactosidase. Nature of the experiment: PubChem AID 485352. In kind it is functional.
A short description of experiment [16]: viability loss in MITF-independent A375 cells – cell-based, CellTiter-Glo luminescence, dry powder, set 2, counter-screen for MITF inhibitor project, dose response (AID 624489).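 Note: actives are compounds lowering A375 viability meaning general cytotoxicity.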 As to conditions: A-375. In kind it is functional. (Cellular ATP, detected with luciferase, serves as a proxy for viable cell number.)
The nature of experiment [17]: cytotoxicity in MITF-independent A375 cells – cell-based, CellTiter-Glo luminescence, dry powder, set 4, counter-screen for MITF inhibitor project, dose response (AID 624364).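 Note: A375 melanoma cells are MITF independent so this is a counter screen.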 It is filed as functional. As to conditions: A-375.
The nature of experiment [18]: Luminescence Cell-Based Dose Retest to Confirm Inhibitors of Cancer Stem Cells. [Related pubchem assays (depositor defined):AID2717, AID2721]. In kind it is functional. The conditions noted are these: Homo sapiens.
A further experiment has as its target Albumin (Bos taurus, UniProt P02769). Nature of the experiment: Counterscreen for inhibitors of T-cell receptor (TCR)-CD3 interaction: Fluorescence-based biochemical high throughput dose response assay to identify inhibitors of T-cell receptor (TCR)-CD3 interaction using a TAMRA-labeled BSA probe. It is filed as functional.
Experiment [19] is described as follows: IGROV1 cell killing – plate reader, dry powder samples, PAX8 inhibitor project, dose response (AID 743043). It is filed as functional, cell-based. The conditions noted are these: IGROV-1.
For experiment [20], the target named is RNA-editing ligase 1, mitochondrial (Trypanosoma brucei brucei, UniProt P86926). Nature of the experiment: inhibition of trypanosome RNA editing ligase – biochemical, fluorescence, Trypanosoma brucei, dose response (AID 1117295). It is filed as functional.

The source made the active and inactive calls. Bounds are passed on as bounds.

Sequence of Paired box protein Pax-8 (Q06710 whole entry): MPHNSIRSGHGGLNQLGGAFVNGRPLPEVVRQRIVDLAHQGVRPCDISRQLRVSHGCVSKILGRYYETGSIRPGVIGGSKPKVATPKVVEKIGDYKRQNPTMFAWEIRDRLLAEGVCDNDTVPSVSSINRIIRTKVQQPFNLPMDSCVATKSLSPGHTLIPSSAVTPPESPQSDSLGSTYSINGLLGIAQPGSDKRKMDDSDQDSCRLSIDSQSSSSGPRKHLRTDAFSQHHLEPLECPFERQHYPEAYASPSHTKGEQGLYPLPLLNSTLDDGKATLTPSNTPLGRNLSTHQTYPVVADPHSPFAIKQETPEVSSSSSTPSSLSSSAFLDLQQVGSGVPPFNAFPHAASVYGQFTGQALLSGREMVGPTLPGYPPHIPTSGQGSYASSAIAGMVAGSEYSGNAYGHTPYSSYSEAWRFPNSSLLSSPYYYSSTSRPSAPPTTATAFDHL
Sequence of Oxysterols receptor LXR-beta (P55055 whole entry, the tested form may be a part): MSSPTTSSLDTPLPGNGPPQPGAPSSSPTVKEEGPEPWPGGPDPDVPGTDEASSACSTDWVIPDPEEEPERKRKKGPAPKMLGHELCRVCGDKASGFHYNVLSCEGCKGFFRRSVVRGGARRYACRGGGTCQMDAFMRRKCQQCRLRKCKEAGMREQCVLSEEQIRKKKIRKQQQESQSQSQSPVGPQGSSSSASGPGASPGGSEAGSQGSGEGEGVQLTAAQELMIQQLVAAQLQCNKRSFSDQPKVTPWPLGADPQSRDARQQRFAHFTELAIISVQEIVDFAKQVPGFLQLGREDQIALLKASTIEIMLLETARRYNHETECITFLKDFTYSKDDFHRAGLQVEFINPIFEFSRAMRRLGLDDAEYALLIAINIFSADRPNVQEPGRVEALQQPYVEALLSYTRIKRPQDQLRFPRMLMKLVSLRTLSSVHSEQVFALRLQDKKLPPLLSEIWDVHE
T3 sequence (Q8VNN2 whole entry): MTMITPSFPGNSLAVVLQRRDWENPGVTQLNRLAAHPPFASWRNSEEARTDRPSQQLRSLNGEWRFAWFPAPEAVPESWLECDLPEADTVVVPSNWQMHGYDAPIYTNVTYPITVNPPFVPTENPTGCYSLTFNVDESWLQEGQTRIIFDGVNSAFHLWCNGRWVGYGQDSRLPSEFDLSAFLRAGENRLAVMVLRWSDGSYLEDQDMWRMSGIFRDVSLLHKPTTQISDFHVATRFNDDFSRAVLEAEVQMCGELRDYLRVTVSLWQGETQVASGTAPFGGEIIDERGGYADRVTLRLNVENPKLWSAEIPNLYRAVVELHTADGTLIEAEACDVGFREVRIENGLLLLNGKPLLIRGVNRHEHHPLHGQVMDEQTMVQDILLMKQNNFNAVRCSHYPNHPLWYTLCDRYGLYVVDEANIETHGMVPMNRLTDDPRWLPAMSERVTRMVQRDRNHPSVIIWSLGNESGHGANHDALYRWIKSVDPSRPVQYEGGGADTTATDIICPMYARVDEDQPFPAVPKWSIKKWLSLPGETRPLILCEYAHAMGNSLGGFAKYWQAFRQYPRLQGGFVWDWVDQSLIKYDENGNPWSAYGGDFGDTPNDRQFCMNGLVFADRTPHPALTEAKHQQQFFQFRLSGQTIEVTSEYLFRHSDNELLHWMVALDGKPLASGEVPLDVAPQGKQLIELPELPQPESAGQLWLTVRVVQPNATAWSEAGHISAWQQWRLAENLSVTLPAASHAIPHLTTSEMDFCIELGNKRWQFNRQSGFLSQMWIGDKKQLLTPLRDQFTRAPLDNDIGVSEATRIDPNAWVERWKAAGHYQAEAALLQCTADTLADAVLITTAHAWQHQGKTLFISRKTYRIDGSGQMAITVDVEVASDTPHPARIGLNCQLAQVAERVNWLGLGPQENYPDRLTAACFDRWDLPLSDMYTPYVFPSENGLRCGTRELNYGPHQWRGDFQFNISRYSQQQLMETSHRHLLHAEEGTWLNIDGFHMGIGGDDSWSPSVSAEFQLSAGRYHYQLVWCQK
Sequence of Kallikrein-7 (P49862 whole entry): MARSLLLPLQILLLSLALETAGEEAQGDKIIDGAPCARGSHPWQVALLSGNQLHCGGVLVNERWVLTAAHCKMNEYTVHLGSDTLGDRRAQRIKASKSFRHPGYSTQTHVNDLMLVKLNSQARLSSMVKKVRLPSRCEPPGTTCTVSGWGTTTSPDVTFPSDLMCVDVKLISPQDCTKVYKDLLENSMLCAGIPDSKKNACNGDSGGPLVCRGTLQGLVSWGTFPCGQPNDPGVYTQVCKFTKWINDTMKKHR
Sequence of RNA-editing ligase 1, mitochondrial (P86926 whole entry): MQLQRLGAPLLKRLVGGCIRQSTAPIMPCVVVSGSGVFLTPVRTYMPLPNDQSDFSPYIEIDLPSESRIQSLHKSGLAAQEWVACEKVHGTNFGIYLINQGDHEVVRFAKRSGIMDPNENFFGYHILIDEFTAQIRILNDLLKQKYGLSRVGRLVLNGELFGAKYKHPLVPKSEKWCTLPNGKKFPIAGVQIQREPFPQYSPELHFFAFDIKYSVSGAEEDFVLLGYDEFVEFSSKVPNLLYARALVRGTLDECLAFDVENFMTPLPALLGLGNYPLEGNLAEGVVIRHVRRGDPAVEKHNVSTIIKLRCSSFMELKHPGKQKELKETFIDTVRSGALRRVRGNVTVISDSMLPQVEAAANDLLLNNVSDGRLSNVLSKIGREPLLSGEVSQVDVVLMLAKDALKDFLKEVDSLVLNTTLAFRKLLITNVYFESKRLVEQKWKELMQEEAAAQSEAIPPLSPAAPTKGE
Sequence of Albumin (P02769 whole entry): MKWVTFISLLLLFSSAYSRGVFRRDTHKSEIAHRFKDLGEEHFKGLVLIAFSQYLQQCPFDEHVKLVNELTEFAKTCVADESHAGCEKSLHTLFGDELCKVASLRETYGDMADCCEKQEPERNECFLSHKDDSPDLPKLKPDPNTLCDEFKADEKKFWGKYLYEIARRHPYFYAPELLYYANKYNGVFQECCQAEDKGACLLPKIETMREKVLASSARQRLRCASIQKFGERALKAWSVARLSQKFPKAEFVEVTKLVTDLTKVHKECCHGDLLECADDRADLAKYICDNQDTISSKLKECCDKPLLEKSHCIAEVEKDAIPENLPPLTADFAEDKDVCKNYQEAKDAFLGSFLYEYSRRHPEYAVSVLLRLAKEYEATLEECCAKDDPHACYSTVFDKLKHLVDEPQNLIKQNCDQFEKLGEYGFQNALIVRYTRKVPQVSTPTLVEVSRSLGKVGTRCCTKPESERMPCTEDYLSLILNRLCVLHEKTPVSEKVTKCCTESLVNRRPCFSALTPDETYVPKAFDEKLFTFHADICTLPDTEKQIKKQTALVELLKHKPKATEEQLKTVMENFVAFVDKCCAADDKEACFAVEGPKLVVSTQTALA
Sequence of FAD-linked sulfhydryl oxidase ALR (P55789 whole entry): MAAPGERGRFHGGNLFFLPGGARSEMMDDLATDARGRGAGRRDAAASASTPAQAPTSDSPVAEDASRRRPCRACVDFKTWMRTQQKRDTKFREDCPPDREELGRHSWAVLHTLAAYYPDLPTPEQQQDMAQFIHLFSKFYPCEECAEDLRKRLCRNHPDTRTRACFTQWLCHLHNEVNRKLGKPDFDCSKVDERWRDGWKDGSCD

Turning to `Clc1ccccc1NN=Cc1ccccn1`, the EC50 (in experiment [1]; in “cells [2]”) was > 67.6 µM (inactive) throughout.
For the compound `NS(=O)(=O)c1ccc(S(=O)(=O)N(CCc2ccccc2)Cc2ccccn2)cc1`, in experiment [3], the AC50 (commonly the midpoint of the concentration-response curve, whichever way the signal moves) is < 0.0235 µM (active).
`COc1cccc2cccc(/C=N/n3cnnc3)c12`: at Kallikrein-7, the EC50 (usually the concentration that produces a half-maximal response) is > 69.5 µM (inactive).
As for `CN1C(=O)c2ccccc2N(C)C1c1ccc2c(c1)OCO2` (configuration not stated), at Kallikrein-7, the EC50 is > 69.5 µM (inactive).
As for `COc1ccc(-c2ccc3c(c2)[C@H]2[C@H](CCN2S(=O)(=O)c2ccc(OC)cc2)[C@@H](CO)N3C)cc1`, the AC50 on Paired box protein Pax-8 is 9.39 µM (active); in experiment [4] it was 38.1 µM (active); in experiment [5] it was 15.6 µM (active); in experiment [6], 34.7 µM (active).
`Cc1ccc(N/N=C(\C#N)C(=N)N2CCCCC2)cc1`: the EC50 (in experiment [1]; in “cells [2]”) was > 67.6 µM (inactive) each time. Moreover, in experiment [7], the AC50 is 0.228 µM (active). For the same compound, the IC50 (as a rule, the point on the concentration scale where inhibition reaches its midpoint) with HEK293 is > 0.278 µM (active); in [8], > 67.5 µM (inactive).
Consider `NS(=O)(=O)c1ccc(CCNC(=O)C2CCC(CNS(=O)(=O)c3ccc(Br)s3)CC2)cc1` (configuration not stated), for which the EC50 (in the experiment “cells [9]”; in experiment [10]) was > 29.9 µM (inactive) in each case. The IC50 in “cells [11]” was > 29.9 µM (inactive); in [12], 1.16 µM (active).
`Cc1ccc(C(=O)CNc2ccc(Br)cc2)cc1`: the IC50 at Beta-galactosidase [13] is > 80 µM (inactive); in experiment [14] it was 7.47 µM (active). Besides, the EC50 on Beta-galactosidase [15] was > 40 µM (inactive).
For the compound `COc1cccc(-c2cc(C(=O)NC3=C(Cl)C(=O)c4ccccc4C3=O)ccc2OC)c1`, the AC50 in experiment [16] and in experiment [17] was > 70 µM (inactive) in each case.
Regarding `OC(COC(c1ccc(F)cc1)c1ccc(F)cc1)CN1CCCC(C(F)(F)F)C1` (configuration not stated), the figures for the EC50 (in the experiment “cells [9]”; in experiment [10]) were > 29.9 µM (inactive) and 2.52 µM (active), respectively. Besides, the IC50 in the experiment “cells [11]” was > 29.9 µM (inactive); in [12] it was 8.46 µM (active).
Consider `CN(C)CCn1c2ccccc2c2nc3ccc([N+](=O)[O-])cc3cc21`, for which the AC50 in experiment [18] was 2.35 µM (active); in [3], 55.7 µM (active).
For the compound `O=C(CCCN1C(=O)/C(=C/c2cccs2)SC1=S)NNC(=O)c1ccccc1O`, the IC50 at Albumin is > 94.1 µM (inactive).
Turning to `C=CCNC1=C(N2CCCCC2)C(=O)c2ccccc2C1=O`, the AC50 is 5.82 µM (active) in experiment [16] and 29.1 µM (active) in experiment [17].
With `C[C@@H]1CCCCO[C@H](CN(C)C(=O)Nc2ccc(C(F)(F)F)cc2)[C@@H](C)CN([C@@H](C)CO)C(=O)c2cc(NS(=O)(=O)c3ccc(Cl)cc3)ccc2O1`, the AC50 was 3.44 µM (active) at Paired box protein Pax-8, 29.1 µM (active) in experiment [5], 36.2 µM (active) in experiment [6] and 46.1 µM (active) in experiment [19].
With `Cc1cc(C)c(OCCCNCc2ccccc2)c(Br)c1`, in experiment [20], the IC50 was > 96.6 µM (inactive).

These data come from ChEMBL document CHEMBL1201862, “PubChem BioAssay data set” (2004).
